Earlier results as cited in patent US20020052320A1, “Sustained peptide-release formulation” (Peptech Limited, priority 1996, published 2002).

What was measured:
[1] = test system: advanced prostatic cancer; conditions: monthly subcutaneous injections
prostate cancer in rats = conditions: controlled dose over 30 days vs equivalent or double doses of free peptide

SMILES	efficacy compared with orchiectomy [1]	tolerability [1]	suppression of prostate tumour weight, microencapsulated form vs daily subcutaneous free peptide (prostate cancer in rats)	suppression of serum testosterone levels, microencapsulated form vs daily subcutaneous free peptide (prostate cancer in rats)
CC(C)C[C@H](NC(=O)[C@@H](COC(C)(C)C)NC(=O)[C@H](Cc1ccc(O)cc1)NC(=O)[C@H](CO)NC(=O)[C@H](Cc1c[nH]c2ccccc12)NC(=O)[C@H](Cc1cnc[nH]1)NC(=O)[C@@H]1CCC(=O)N1)C(=O)N[C@@H](CCCNC(=N)N)C(=O)N1CCC[C@H]1C(=O)NNC(N)=O [goserelin, 3-[5-oxo-L-prolyl-L-tryptophyl-L-seryl-L-tyrosyl-(3-O-tert-butyl)-D-seryl-L-1eucyl-L-arginyl-L-prolyl]cabazamide acetate]	as effective as orchiectomy	well tolerated	–	–
CC(C)C[C@H](NC(=O)[C@@H](Cc1c[nH]c2ccccc12)NC(=O)[C@H](Cc1ccc(O)cc1)NC(=O)[C@H](CO)NC(=O)[C@H](Cc1c[nH]c2ccccc12)NC(=O)[C@H](Cc1c[nH]cn1)NC(=O)[C@@H]1CCC(=O)N1)C(=O)N[C@@H](CCCNC(=N)N)C(=O)N1CCC[C@H]1C(=O)NCC(N)=O [triptorelin, 5-oxo-L-prolyl-L-histidyl-L-tryptophyl-L-seryl-L-tyrosyl-D-tryptophyl-L-leucyl-L-arginyl-L-prolylglycinamide]	–	–	more effective	more effective
